Legend:
Assay in all cases: radioligand competition with 3H-isopentenyladenine, plant microsomes
Type in all cases: binding
Details in all cases: 1 µM compound vs 3H-iP (2 pmol per sample), membranes of N. benthamiana
CRE1/AHK4 = target: T1, CRE1/AHK4 (Arabidopsis thaliana, UniProt Q9C5U0)
T1 construct: receptor fused with GFP, transiently expressed in Nicotiana benthamiana leaves; microsomal membranes
Description: radioligand competition with 3H-isopentenyladenine, plant microsomes on CRE1/AHK4

AHK3 = target: T2, AHK3 (Arabidopsis thaliana, UniProt Q9C5U1)
T2 construct: receptor fused with GFP, transiently expressed in Nicotiana benthamiana leaves; microsomal membranes
T2 sequence (Q9C5U1 1-1036): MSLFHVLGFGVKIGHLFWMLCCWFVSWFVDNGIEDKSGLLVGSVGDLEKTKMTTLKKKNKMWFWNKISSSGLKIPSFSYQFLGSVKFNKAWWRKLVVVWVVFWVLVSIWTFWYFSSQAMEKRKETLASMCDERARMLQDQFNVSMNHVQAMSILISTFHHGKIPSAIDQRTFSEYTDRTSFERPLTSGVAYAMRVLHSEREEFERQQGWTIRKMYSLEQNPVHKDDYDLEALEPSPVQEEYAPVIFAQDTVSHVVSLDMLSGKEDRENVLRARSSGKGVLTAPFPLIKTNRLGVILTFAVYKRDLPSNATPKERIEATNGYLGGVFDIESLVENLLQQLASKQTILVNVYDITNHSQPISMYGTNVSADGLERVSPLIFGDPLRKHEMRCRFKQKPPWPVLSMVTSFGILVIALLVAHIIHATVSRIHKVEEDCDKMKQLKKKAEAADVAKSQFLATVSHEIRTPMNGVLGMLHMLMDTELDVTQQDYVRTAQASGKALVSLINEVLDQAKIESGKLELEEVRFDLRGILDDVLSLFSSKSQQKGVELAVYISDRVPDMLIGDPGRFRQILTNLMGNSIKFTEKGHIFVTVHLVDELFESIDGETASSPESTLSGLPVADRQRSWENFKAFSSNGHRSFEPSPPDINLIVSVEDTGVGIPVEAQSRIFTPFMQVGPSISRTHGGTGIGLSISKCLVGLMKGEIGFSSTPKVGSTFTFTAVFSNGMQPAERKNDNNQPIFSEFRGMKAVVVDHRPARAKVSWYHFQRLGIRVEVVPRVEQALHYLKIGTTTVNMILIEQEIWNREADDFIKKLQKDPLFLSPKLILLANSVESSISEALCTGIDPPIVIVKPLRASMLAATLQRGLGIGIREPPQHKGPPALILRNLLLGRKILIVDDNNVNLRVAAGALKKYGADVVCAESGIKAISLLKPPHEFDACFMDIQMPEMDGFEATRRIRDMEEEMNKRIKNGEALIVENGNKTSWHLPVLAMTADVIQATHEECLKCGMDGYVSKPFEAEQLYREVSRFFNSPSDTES
Description: radioligand competition with 3H-isopentenyladenine, plant microsomes on AHK3

AHK2 = target: T3, AHK2 (Arabidopsis thaliana, UniProt Q9C5U2)
T3 construct: receptor fused with GFP, transiently expressed in Nicotiana benthamiana leaves; microsomal membranes
T3 sequence (Q9C5U2 1-1176): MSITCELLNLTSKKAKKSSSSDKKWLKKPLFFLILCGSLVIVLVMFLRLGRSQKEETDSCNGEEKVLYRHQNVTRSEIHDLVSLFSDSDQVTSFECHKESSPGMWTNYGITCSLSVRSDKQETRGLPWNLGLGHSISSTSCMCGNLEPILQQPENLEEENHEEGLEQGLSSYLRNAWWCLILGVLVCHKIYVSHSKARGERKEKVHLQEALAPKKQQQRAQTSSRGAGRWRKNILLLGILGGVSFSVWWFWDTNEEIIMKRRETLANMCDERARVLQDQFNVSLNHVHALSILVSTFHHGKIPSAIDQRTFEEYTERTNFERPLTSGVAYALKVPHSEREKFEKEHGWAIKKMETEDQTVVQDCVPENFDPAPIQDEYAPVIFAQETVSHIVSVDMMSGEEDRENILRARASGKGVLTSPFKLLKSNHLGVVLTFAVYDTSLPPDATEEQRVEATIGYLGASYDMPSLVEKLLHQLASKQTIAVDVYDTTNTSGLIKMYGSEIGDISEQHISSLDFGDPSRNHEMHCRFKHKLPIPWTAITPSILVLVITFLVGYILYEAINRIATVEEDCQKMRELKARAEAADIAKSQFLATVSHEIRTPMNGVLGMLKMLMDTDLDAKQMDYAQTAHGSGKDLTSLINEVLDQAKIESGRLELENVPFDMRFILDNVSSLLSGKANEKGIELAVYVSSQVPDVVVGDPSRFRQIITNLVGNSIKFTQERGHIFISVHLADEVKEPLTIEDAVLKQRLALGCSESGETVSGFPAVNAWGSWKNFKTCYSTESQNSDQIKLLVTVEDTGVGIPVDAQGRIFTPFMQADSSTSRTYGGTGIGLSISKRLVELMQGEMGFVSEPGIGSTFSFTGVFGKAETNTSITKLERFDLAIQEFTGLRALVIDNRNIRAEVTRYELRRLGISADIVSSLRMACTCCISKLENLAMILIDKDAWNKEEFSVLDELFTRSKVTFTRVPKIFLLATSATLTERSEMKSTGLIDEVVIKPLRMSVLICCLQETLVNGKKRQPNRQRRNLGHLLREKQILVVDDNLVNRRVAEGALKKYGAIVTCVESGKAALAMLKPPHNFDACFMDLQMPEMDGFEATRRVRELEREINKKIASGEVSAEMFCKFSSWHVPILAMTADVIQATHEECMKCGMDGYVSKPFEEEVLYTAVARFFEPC
Description: radioligand competition with 3H-isopentenyladenine, plant microsomes on AHK2

T1 sequence (Q9C5U0 whole entry, the tested form may be a part): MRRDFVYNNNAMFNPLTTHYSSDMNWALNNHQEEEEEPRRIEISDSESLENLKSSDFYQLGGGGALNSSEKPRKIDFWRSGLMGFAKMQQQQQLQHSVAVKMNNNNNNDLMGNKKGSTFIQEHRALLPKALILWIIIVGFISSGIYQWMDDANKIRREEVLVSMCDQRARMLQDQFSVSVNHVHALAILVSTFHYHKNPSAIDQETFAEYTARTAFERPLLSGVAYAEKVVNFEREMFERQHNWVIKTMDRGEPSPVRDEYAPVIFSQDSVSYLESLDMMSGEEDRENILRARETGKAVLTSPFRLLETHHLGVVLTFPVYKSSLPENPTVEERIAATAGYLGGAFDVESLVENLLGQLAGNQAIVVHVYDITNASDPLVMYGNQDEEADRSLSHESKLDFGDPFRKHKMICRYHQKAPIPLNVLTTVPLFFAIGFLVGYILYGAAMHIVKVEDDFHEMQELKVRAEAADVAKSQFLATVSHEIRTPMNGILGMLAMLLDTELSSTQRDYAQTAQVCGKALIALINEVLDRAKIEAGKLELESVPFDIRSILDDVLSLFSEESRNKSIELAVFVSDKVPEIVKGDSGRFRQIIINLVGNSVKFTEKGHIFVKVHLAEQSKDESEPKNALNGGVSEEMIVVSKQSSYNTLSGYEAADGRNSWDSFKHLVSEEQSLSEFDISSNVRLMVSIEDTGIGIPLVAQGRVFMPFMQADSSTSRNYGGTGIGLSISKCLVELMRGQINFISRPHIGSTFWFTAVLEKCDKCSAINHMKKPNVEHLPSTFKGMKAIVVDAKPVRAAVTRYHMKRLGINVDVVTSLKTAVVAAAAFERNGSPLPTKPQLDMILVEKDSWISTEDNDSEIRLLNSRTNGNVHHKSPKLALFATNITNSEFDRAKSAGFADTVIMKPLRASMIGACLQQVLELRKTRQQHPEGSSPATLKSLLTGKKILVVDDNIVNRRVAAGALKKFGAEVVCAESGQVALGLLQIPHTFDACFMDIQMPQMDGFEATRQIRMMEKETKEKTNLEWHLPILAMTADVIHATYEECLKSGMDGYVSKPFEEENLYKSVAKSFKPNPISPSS

| CRE1/AHK4 / 1 μM (CRE1/AHK4) | АНК3 / 1 μM (AHK3) | АНК2 / 1 μM (AHK2) | SMILES |
| --- | --- | --- | --- |
| 45.8 ± 0.3% | 74.7 ± 1.7% | 8.7 ± 0.9% | C[C@H](Nc1nc(F)nc2nc[nH]c12)c1ccccc1 [6b, 2-fluoro,N^6-((S)-α-methylbenzyl) adenine] |
| 74.1 ± 1.6% | 88.9 ± 0.7% | 42.6 ± 0.4% | C[C@@H](Nc1nc(Cl)nc2[nH]cnc12)c1ccccc1 [7a, 2-chloro,N^6-((R)-α-methylbenzyl) adenine] |
| 37.1 ± 1.2% | 80.6 ± 1.5% | 3.1 ± 0.4% | C[C@H](Nc1nc(Cl)nc2[nH]cnc12)c1ccccc1 [7b, 2-chloro,N^6-((S)-α-methylbenzyl) adenine] |
| 30.4 ± 1.0% | 54.7 ± 1.1% | 58.8 ± 1.3% | C[C@@H](Nc1nc(N)nc2[nH]cnc12)c1ccccc1 [8a, 2-amino,N^6-((R)-α-methylbenzyl) adenine] |

The next lines start with the compound.

| SMILES | CRE1/AHK4 / 1 μM (CRE1/AHK4) | АНК3 / 1 μM (AHK3) | АНК2 / 1 μM (AHK2) |
| --- | --- | --- | --- |
| C[C@@H](Nc1ncnc2[nH]cnc12)c1ccccc1 [5a, N^6-((R)-α-methylbenzyl) adenine] | 87.7 ± 1.0% | 97.7 ± 1.0% | 88.9 ± 0.5% |
| C[C@H](Nc1ncnc2[nH]cnc12)c1ccccc1 [5b, N^6-((S)-α-methylbenzyl) adenine] | – | 46.5 ± 2.2% | 8.9 ± 4.9% |
| C[C@@H](Nc1nc(F)nc2[nH]cnc12)c1ccccc1 [6a, 2-fluoro,N^6-((R)-α-methylbenzyl) adenine] | 97.2 ± 0.9% | 99.8 ± 1.5% | 92.1 ± 1.0% |

Reference: paper PMC9569578, “In Planta, In Vitro and In Silico Studies of Chiral N^6-Benzyladenine Derivatives: Discovery of Receptor-Specific S-Enantiomers with Cytokinin or Anticytokinin Activities” (International Journal of Molecular Sciences, 2022)
